Measured values: patent publication US20110130464A1, “Combination Agent for Improving Carcass Performance in Finishing Pigs” (IGENE BIOTECHNOLOGY, INC., priority 2008, published 2011)
Structures can show the parent of a compound that is named as a salt.

How the values were obtained:
pigs = details: Trapp et al. 2002; cited from earlier work
finishing pigs [1] = assay: Growth performance and carcass characteristics of finishing pigs fed astaxanthin with or without Paylean; assay type: in vivo; details: for ADFI (Average Daily Feed Intake) / ADG (Average Daily Gain) / F/G (Pounds of feed to gain one pound of weight) / G/F (Reciprocal of F/G): 26 d
Procedure: Procedures used in the experiment were approved by the Kansas State University (KSU) Animal Care and Use Committee. The project was conducted at the KSU Swine Teaching and Research Farm. Pigs were housed in an environmentally-regulated finishing building with pens over a totally slatted floor that provided approximately 8 ft^2 per pig. Each pen was equipped with a dry, self-feeder and one nipple waterer, providing ad libitum access to feed and water. The facility was a mechanically-ventilated room with a pull-plug, manure storage pit.
A total of 144 finishing pigs from a single group (72 barrows and 72 gilts) were utilized for the experiments. Pigs were blocked by weight and gender, and allotted to one of 9 dietary treatments for an average period of 27 days pre-harvest. Each pen served as an experimental unit, with 2 pigs/pen and 8 replications to provide 16 pigs per treatment.
Experimental diets were provided in meal form and astaxanthin (0, 5, 7.5 and 10 ppm) was added to the control diet at the expense of corn starch to achieve the dietary treatments (Table 1). Paylean® was added to the diets indicated to contain 10 ppm.
Pigs were weighed on day 0, 7, 14, 21, and ˜27 to calculate average daily gain, average daily feed intake, and feed efficiency. Upon completion of the collection of growth performance data, all pigs were euthanized and processed for the collection of standard carcass measurements (dressing percentage, 10th rib backfat depth, loin muscle area, etc.).
Data were analyzed as a randomized complete block design using the PROC MIXED procedure of SAS with pen as the experimental unit. Linear and quadratic polynomial contrasts were used to determine the effect of increasing astaxanthin, with and without addition of Paylean®.
The source of natural astaxanthin used in this example was the yeast Phaffia rhodozyma which is commercially available under the trade name Aquasta® containing 10000 ppm astaxanthin, by weight.

finishing pigs [2] = details: Yang et al., cited from earlier work
[3] = 10 ppm Paylean, 0 ppm astaxanthin
[4] = 5 ppm astaxanthin in diet, without Paylean
[5] = 7.5 ppm astaxanthin in diet, without Paylean
[6] = 10 ppm astaxanthin in diet, without Paylean

CC(CCc1ccc(O)cc1)NCC(O)c1ccc(O)cc1 (stereo not drawn) [Paylean®, ractopamine hydrochloride, reference compound]
hot carcass weight, dressing percent and loin eye area (pigs): increase | LEA (loin eye areas), average (finishing pigs [1]; 10 ppm Paylean alone): 8.29 square inches | increase of LEA over control pigs (finishing pigs [1]; 10 ppm Paylean alone vs control diet without astaxanthin or Paylean): 1.03 square inches | BF-10th rib (Back Fat) (finishing pigs [1]; [3]): 0.81 in. | BF-avg. (Back Fat) (finishing pigs [1]; [3]): 1.06 in. | Body weight, Final (finishing pigs [1]; [3]): 297.1 lb | Carcass Yield (finishing pigs [1]; [3]): 72.0% | HCW (Hot Carcass Weight) (finishing pigs [1]; [3]): 213.9 lb | LEA-10th rib (Loin Eye Area) (finishing pigs [1]; [3]): 8.29 in^2 | PFFL (Percent Fat Free Lean, SFFL/HCW) (finishing pigs [1]; [3]): 53.8% | SFFL (Standard Fat Free Lean) (finishing pigs [1]; [3]): 115.2 lb | SFFL (standard fat free lean) (finishing pigs [1]; 10 ppm Paylean, control 108.4 pounds): 115.2 pounds | ADFI (Average Daily Feed Intake) (finishing pigs [1]; [3]): 8.05 lb | ADG (Average Daily Gain) (finishing pigs [1]; [3]): 2.83 lb | F/G (Pounds of feed to gain one pound of weight) (finishing pigs [1]; [3]): 2.86 | G/F (Reciprocal of F/G) (finishing pigs [1]; [3]): 0.35

CC1=C(/C=C/C(C)=C/C=C/C(C)=C/C=C/C=C(C)/C=C/C=C(C)/C=C/C2=C(C)C(=O)C(O)CC2(C)C)C(C)(C)CC(O)C1=O (stereo not drawn) [astaxanthin, 3,3′-dihydroxy-β,β-carotene-4,4′ dione]
BF-10th rib (Back Fat) (finishing pigs [1]; [4]): 0.84 in. | BF-avg. (Back Fat) (finishing pigs [1]; [4]): 1.12 in. | Body weight, Final (finishing pigs [1]; [4]): 287.6 lb | Carcass Yield (finishing pigs [1]; [4]): 70.4% | HCW (Hot Carcass Weight) (finishing pigs [1]; [4]): 202.6 lb | LEA-10th rib (Loin Eye Area) (finishing pigs [1]; [4]): 7.55 in^2 | PFFL (Percent Fat Free Lean, SFFL/HCW) (finishing pigs [1]; [4]): 52.8% | SFFL (Standard Fat Free Lean) (finishing pigs [1]; [4]): 107.1 lb | LEA (loin eye areas), average (finishing pigs [1]; 7.5 ppm astaxanthin alone): 7.36 square inches | increase of LEA over control pigs (finishing pigs [1]; 7.5 ppm astaxanthin alone vs diets without astaxanthin): 0.10 square inches | BF-10th rib (Back Fat) (finishing pigs [1]; [5]): 0.81 in. | BF-avg. (Back Fat) (finishing pigs [1]; [5]): 1.02 in. | Body weight, Final (finishing pigs [1]; [5]): 287.4 lb | Carcass Yield (finishing pigs [1]; [5]): 71.5% | HCW (Hot Carcass Weight) (finishing pigs [1]; [5]): 203.4 lb | LEA-10th rib (Loin Eye Area) (finishing pigs [1]; [5]): 7.36 in^2 | PFFL (Percent Fat Free Lean, SFFL/HCW) (finishing pigs [1]; [5]): 52.9% | SFFL (Standard Fat Free Lean) (finishing pigs [1]; [5]): 107.6 lb | BF-10th rib (Back Fat) (finishing pigs [1]; [6]): 0.77 in. | BF-avg. (Back Fat) (finishing pigs [1]; [6]): 1.04 in. | Body weight, Final (finishing pigs [1]; [6]): 286.2 lb | Carcass Yield (finishing pigs [1]; [6]): 70.8% | HCW (Hot Carcass Weight) (finishing pigs [1]; [6]): 202.5 lb | LEA-10th rib (Loin Eye Area) (finishing pigs [1]; [6]): 7.53 in^2 | PFFL (Percent Fat Free Lean, SFFL/HCW) (finishing pigs [1]; [6]): 53.7% | SFFL (Standard Fat Free Lean) (finishing pigs [1]; [6]): 108.6 lb | ADFI (Average Daily Feed Intake) (finishing pigs [1]; [4]): 8.06 lb | ADG (Average Daily Gain) (finishing pigs [1]; [4]): 2.34 lb | F/G (Pounds of feed to gain one pound of weight) (finishing pigs [1]; [4]): 3.44 | G/F (Reciprocal of F/G) (finishing pigs [1]; [4]): 0.29 | ADFI (Average Daily Feed Intake) (finishing pigs [1]; [5]): 8.03 lb | ADG (Average Daily Gain) (finishing pigs [1]; [5]): 2.45 lb | F/G (Pounds of feed to gain one pound of weight) (finishing pigs [1]; [5]): 3.28 | G/F (Reciprocal of F/G) (finishing pigs [1]; [5]): 0.31 | ADFI (Average Daily Feed Intake) (finishing pigs [1]; [6]): 8.01 lb | ADG (Average Daily Gain) (finishing pigs [1]; [6]): 2.41 lb | F/G (Pounds of feed to gain one pound of weight) (finishing pigs [1]; [6]): 3.35 | G/F (Reciprocal of F/G) (finishing pigs [1]; [6]): 0.30 | SFFL versus pigs fed a diet without astaxanthin (finishing pigs [1]; astaxanthin alone): no statistical difference | production performance (finishing pigs [2]; 0, 1.5 and 3.0 ppm astaxanthin in diet of finishing pigs): no significant effect | dressing percentage, back fat thickness and loin muscle area (finishing pigs [2]; increasing dietary astaxanthin level (0, 1.5, 3.0 ppm)): linear effect
